Assays:
[1] = Investigation of discoloration resistance (UV exposure, judged by eye); assay type: physicochemical; details: in tap water, complexes diluted to 2% (10-40 ppm silver ion), silver compounds 40 ppm, UV 2 hr
[2] = test system: (Candida Albicans ATCC 11651); experiment: Minimum growth inhibition concentration, test-tube dilution method; assay type: cell-based
Experimental: (§1) The minimum growth inhibition concentration was measured using test-tube dilution method in order to evaluate the antibacterial activity of the silver complexes obtained in Examples 1-5.

[3] = test system: Staphylococcus aureus ATCC 25923; experiment: as above; assay type: cell-based
Experimental: as §1

[4] = test system: Staphylococcus aureus ATCC 6538P; experiment: as above; assay type: cell-based
Experimental: as §1

[5] = test system: Yeast (Trentopholia odorata); experiment: as above; assay type: cell-based
Experimental: as §1

[6] = test system: Trichophyton rubrum ATCC 28188; experiment: as above; assay type: cell-based
Experimental: as §1

[7] = test system: E. coli O-157 (Escherichia coli ATCC 43895); experiment: as above; assay type: cell-based; details: E. coli O-157 ATCC 43895
Experimental: as §1

[8] = test system: E. coli (Escherichia coli ATCC 25922); experiment: as above; assay type: cell-based; details: E. coli ATCC 25922
Experimental: as §1

Compound | Discoloration [1] | Minimum Growth Inhibition Concentration [2] [ppm] | Minimum Growth Inhibition Concentration [3] [ppm] | Minimum Growth Inhibition Concentration [4] [ppm] | Minimum Growth Inhibition Concentration [5] [ppm] | Minimum Growth Inhibition Concentration [6] [ppm] | Minimum Growth Inhibition Concentration [7] [ppm] | Minimum Growth Inhibition Concentration [8] [ppm]
O=[N+]([O-])[O-].[Ag+] [Silver nitrate solution, silver nitrate, reference compound] | 1 |  |  |  |  |  |  | 
O=C([O-])c1ccccc1.[Ag+] [Silver benzoate solution, silver beiizoate, reference compound] | 1 |  |  |  |  |  |  | 
Silver-diethanolamine Complex [Example 5] | 3 | 1 | 6 | 7 | <1 | 2 | 3 | 1
Silver-triethanolamine Complex [Example 4] | 3 | 1 | 5 | 5 | <1 | 2 | 3 | 1

From US20030190370A1, “Antibacterial agents, and antibacterial and deodorizing solution comprising the same” (priority 2000, published 2003)
